# Test results as given in US7655662B2, “(Indazol-5-yl)-pyrazines and (1,3-dihydro-indol-2-one)-pyrazines for treating glaucoma and controlling intraocular pressure” (Alcon Research, Ltd., priority 2005, dated 2010).
# Where a name gives a salt, the structure may show the parent alone.
# Target: T1, Human recombinant Rho kinase (ROKα/ROCK-II, (aa 11-552)) (Homo sapiens, UniProt O75116)
# T1 construct: Human recombinant Rho kinase (ROKα/ROCK-II, (aa 11-552), human active); purchased Upstate Biotechnology Co., Lake Placid, N.Y. 14-451
# Assay: Rho kinase II (ROCK II) IMAP fluorescence polarization inhibition assay
# Format: biochemical
# Conditions: IMAP ROCK II kit; substrate 200 nM, ATP 10 μM; 60 min at 23° C.; read-out: Rho kinase II Binding Data IC50
# Experimental: The ability of certain compounds of Formula (I) to inhibit rho kinase is evaluated by means of in vitro assays. Human recombinant Rho kinase (ROKα/ROCK-II, (aa 11-552), human active, catalog #14-451, Upstate Biotechnology Co., Lake Placid, N.Y.), MgCl2/ATP cocktail, and enzyme substrate (Upstate) is used.
# Fluorescence polarization assays are performed using a Biomek 2000 Robotic Workstation (Beckman Instruments, Palo Alto, Calif.) in a 96-well plate format. The assays are performed utilizing the IMAP ROCK II kit (Molecular Devices, Sunnyvale, Calif.) as follows. Substrate and ATP concentrations used are 200 nM and 10 μM, respectively, while the enzyme concentration is 3.96×10^−3 units per well. The substrate, enzyme, and ATP dilutions are made with the reaction buffer provided by the vendor. Test compounds are diluted in 10:10 DMSO-ethanol (vol/vol). For the actual assays, the various components are added into black, clear bottom, 96-well plates (Costar, Corning, N.Y.) in a final volume of 20 μl per well. After the enzyme reaction (60 min at 23° C.), 60 μl of the binding solution (IMAP kit, provided by vendor) is added per well and incubated for an additional 30 minutes in the dark at 23° C. Fluorescence polarization of the reaction mixtures is then measured on the Analyst™ HT instrument (Molecular Devices, Sunnyvale, Calif.).
# The data generated are then analyzed using a non-linear, iterative, sigmoidal-fit computer program purchased from IDBS (Emeryville, Calif.) and as previously described (Sharif et al., J Pharmacol. Exp. Ther. 286:1094-1102, 1998; Sharif et al., J Pharmacol. Expt. Ther. 293:321-328, 2000; Sharif et al., J Ocular Pharmacol. Ther. 18:141-162, 2002a; Sharif et al., J Pharmac. Pharmacol. 54:539-547, 2002b) to generate the inhibition constants for the test compounds.
# T1 sequence (O75116 11-552): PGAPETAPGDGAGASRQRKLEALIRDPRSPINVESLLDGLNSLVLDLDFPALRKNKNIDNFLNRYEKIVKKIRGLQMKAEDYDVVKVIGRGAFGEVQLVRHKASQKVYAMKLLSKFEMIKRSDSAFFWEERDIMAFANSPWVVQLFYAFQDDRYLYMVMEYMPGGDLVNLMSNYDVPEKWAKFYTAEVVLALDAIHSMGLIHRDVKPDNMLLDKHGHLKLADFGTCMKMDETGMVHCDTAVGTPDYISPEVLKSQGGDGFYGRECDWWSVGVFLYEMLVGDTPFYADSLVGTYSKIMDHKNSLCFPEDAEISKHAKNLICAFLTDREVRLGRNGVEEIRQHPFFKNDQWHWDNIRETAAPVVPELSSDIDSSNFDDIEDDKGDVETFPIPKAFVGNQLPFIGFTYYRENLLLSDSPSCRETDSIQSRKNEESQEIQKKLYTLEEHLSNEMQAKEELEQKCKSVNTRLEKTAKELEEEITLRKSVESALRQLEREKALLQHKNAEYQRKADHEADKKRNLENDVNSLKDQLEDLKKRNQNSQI
row,IC50 [nM],SMILES
1,57,"Cc1n[nH]c2ccc(-c3cncc(NC[C@@H](N)Cc4ccccc4)n3)cc12 (single isomer, unassigned) [Example 2]"
2,190,"Cc1n[nH]c2ccc(-c3cncc(NC[C@@H](N)Cc4ccccc4)n3)cc12 [Example 1, (S)-N^1-[6-(3-Methyl-1H-indazole-5-yl)-pyrazin-2-yl]-3-phenyl-propane-1,2-diamine dihydrochloride]"
3,590,Cc1n[nH]c2ccc(-c3cncc(NCC(N)Cc4cc5ccccc5[nH]4)n3)cc12 (stereo not drawn) [Example 3]
